# Experimental data taken from PubChem BioAssay AID1208 (EPA DSSTox, 2008).
# Calls of active or inactive are those of the source.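 The calls were made as follows: active = at least one rat sex group has a carcinogenic potency value and tumor site recorded; inconclusive = only rat studies were judged inadequate by the national testing program; inactive = no potency or tumor site, with negative rat experiments.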
# System: rat chronic carcinogenicity bioassay, TD50
# Assay: DSSTox (CPDBAS) Carcinogenic Potency Database Summary Rat Bioassay Results
# Details: for Potency: active compounds read low; for outcome: TD50_Rat_Note: no positive results
# Method in brief: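 Chronic long-term rat cancer bioassays from literature and NCI/NTP, taking the most positive result per sex. TD50 in mmol converted to a 1–100 Activity Score from log10(1/TD50). Mixtures lacking TD50 scored 50.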
# [1] = TargetSites_Rat_Female: no positive results
# [2] = TD50_Rat_Note: TD50 is harmonic mean of more than one positive test, TargetSites_Rat_Female: no positive results
compound,measurement,setting,value
CN(C)C(=O)Nc1ccc(Cl)cc1,Potency,[1],131 mg/kg/day
[O-][Br+2]([O-])O,Potency,"TD50_Rat_Note: TD50 is harmonic mean of more than one positive test, TargetSites_Rat_Female: kidney",9.82 mg/kg/day
C[C@]12C=CC(=O)C=C1CC[C@@H]1[C@@H]2[C@@H](O)C[C@@]2(C)[C@H]1CC[C@]2(O)C(=O)CO,Potency,[1],1.53 mg/kg/day
ClC(Cl)C(Cl)Cl,outcome,[1],inactive; no positive results
NC(=O)c1ccccc1C(N)=O,outcome,[1],inactive; no positive results
C/C=C/c1ccc(OC)cc1,outcome,[1],inactive; no positive results
Cc1ccc(C)c(C)c1,Potency,[1],4350 mg/kg/day
CCC(CC)C(=O)NC(N)=O,outcome,,inactive; no positive results
OCC(CO)(CBr)CBr,Potency,"TD50_Rat_Note: TD50 is harmonic mean of more than one positive test, TargetSites_Rat_Female: esophagus, mammary gland, oral cavity, thyroid gland",111 mg/kg/day
CC(CCl)OC(C)CCl (stereo not given),outcome,[1],inactive; no positive results
C=CC=C,Potency,"TD50_Rat_Note: TD50 is harmonic mean of more than one positive test, greater than ten-fold variation among TD50 values for positive res, TargetSites_Rat_Female: mammary gland",261 mg/kg/day
Cc1cnc2ccc3c(nc(N)n3C)c2n1,Potency,"TD50_Rat_Note: TD50 is harmonic mean of more than one positive test, TargetSites_Rat_Female: clitoral gland, ear Zymbals gland, liver",1.66 mg/kg/day
O=NN1CCCCC1c1cccnc1 (stereo not given),Potency,"TD50_Rat_Note: TD50 is harmonic mean of more than one positive test, TargetSites_Rat_Female: esophagus",11.9 mg/kg/day
Clc1ccc2c(c1)C(c1ccccc1)=NCc1nncn1-2,outcome,[1],inactive; no positive results
CC(C)NCC(O)COc1ccc(CC(N)=O)cc1 (stereo not given),outcome,[1],inactive; no positive results
Cc1ccc(S(=O)(=O)Oc2ccc(N=Nc3ccc(-c4ccc(N=Nc5c(O)ccc6cc(S(=O)(=O)O)cc(S(=O)(=O)O)c56)c(C)c4)cc3C)cc2)cc1,Potency,"TD50_Rat_Note: TD50 is harmonic mean of more than one positive test, TargetSites_Rat_Female: clitoral gland, ear Zymbals gland, large intestine, liver, lung, oral cavity, skin, small intestine",3.89 mg/kg/day
CN(C)CNc1nnc(/C=C/c2ccc([N+](=O)[O-])o2)o1,Potency,"TargetSites_Rat_Female: lung, mammary gland, small intestine, stomach",22.4 mg/kg/day
CN(N=O)c1ccc([N+](=O)[O-])cc1,outcome,,inactive; no positive results
ClC=C(Cl)Cl,Potency,[2],668 mg/kg/day
same,outcome,[1],inactive; no positive results
Nc1ccc(S(=O)(=O)c2ccc(N)cc2)cc1,Potency,[1],22.4 mg/kg/day
C/C=C/C=C/C=O,Potency,"TD50_Rat_Note: TD50 is harmonic mean of more than one positive test, TargetSites_Rat_Female: stomach",62.2 mg/kg/day
COc1cc(/C=C/C(=O)O[C@H]2CC[C@]34C[C@]35CC[C@]3(C)[C@@H]([C@H](C)CCC=C(C)C)CC[C@@]3(C)[C@@H]5CC[C@H]4C2(C)C)ccc1O,outcome,[1],inactive; no positive results
O=C1C(O)N=C(c2ccccc2F)c2cc(Cl)ccc2N1CCO (stereo not given),outcome,[1],inactive; no positive results
Nc1nnc(-c2ccc([N+](=O)[O-])o2)s1,Potency,"TargetSites_Rat_Female: kidney, lung, mammary gland, stomach",0.662 mg/kg/day
Cc1ccc(O)c(C(C)(C)C)c1,outcome,,inactive; no positive results
CCCC(Cl)CCC(Cl)CCC(Cl)CCC(Cl)CCC(Cl)CCC(Cl)CCC(C)Cl (stereo not given),outcome,[1],inactive; no positive results
Cn1c(=O)c2c(ncn2C)n(C)c1=O,outcome,[1],inactive; no positive results
CC[C@H]1OC(=O)[C@H](C)[C@@H](O[C@H]2C[C@@](C)(OC)[C@@H](O)[C@H](C)O2)[C@H](C)[C@@H](O[C@@H]2O[C@H](C)C[C@H](N(C)C)[C@H]2O)[C@](C)(O)C[C@@H](C)C(=O)[C@H](C)[C@@H](O)[C@]1(C)O,outcome,[1],inactive; no positive results
C=CCN(CC=C)N=O,Potency,"TD50_Rat_Note: TD50 is harmonic mean of more than one positive test, TargetSites_Rat_Female: nasal cavity",33.9 mg/kg/day
CC/C=C(/CC)[N+](=O)[O-],Potency,TargetSites_Rat_BothSexes: lung,8.66 mg/kg/day
CBr,outcome,[1],inactive; no positive results
Cc1cccc(N)c1,outcome,,inactive; no positive results
OCC1CO1 (stereo not given),Potency,"TD50_Rat_Note: TD50 is harmonic mean of more than one positive test, TargetSites_Rat_Female: clitoral gland, hematopoietic system, mammary gland, nervous system, oral cavity, stomach, thyroid gland",4.28 mg/kg/day
CC(=O)Nc1ccc(O)cc1,Potency,"TD50_Rat_Note: TD50 is harmonic mean of more than one positive test, TargetSites_Rat_Female: liver, urinary bladder",495 mg/kg/day
CC(O)CN(CC(C)O)CC(C)O (stereo not given),outcome,,inactive; no positive results
O=C(O)COc1ccc(Cl)cc1Cl,outcome,[1],inactive; no positive results
Nc1ccc(O)c(N)c1,outcome,[1],inactive; no positive results
Nc1nc(-c2ccc([N+](=O)[O-])o2)cs1,Potency,"TargetSites_Rat_Female: stomach, urinary bladder",5.85 mg/kg/day
O=S(=O)(O)c1c(N=Nc2c(O)ccc3ccccc23)ccc2ccccc12,outcome,[1],inactive; no positive results
NCCCCCC(=O)O,outcome,,inactive; no positive results
O=C1CC(=O)NC(=O)N1,outcome,,inactive; no positive results
CC(=O)OC1CC(C)OC(C)O1 (stereo not given),outcome,[1],inactive; no positive results
same,Potency,,716 mg/kg/day
CCCC[C@H](C)[C@@H](OC(=O)C[C@H](CC(=O)O)C(=O)O)[C@@H](C[C@H](C)C[C@@H](O)CCCC[C@@H](O)C[C@H](O)[C@H](C)N)OC(=O)C[C@H](CC(=O)O)C(=O)O,Potency,[2],1.5 mg/kg/day
